In brackets after ≈: the same amount, converted by molar mass.
Columns and labels:
[1] = system: Staphylococcus epidermidis; test: Antibacterial activity against methicillin-sensitive Staphylococcus epidermidis after 16 hrs by agar dilution method; format: functional
Staphylococcus aureus [2] = test: Antibacterial activity against Staphylococcus aureus […] after 16 hrs by agar dilution method; format: functional
[3] = system: Staphylococcus epidermidis; test: Antibacterial activity against methicillin-resistant Staphylococcus epidermidis after 16 hrs by agar dilution method; format: functional
Staphylococcus aureus [4] = test: Antibacterial activity against methicillin-resistant Staphylococcus aureus after 16 hrs by agar dilution method; format: functional
Staphylococcus aureus [5] = test: Antibacterial activity against methicillin-sensitive Staphylococcus aureus after 16 hrs by agar dilution method; format: functional
Streptococcus pneumoniae = test: Antibacterial activity against penicillin-resistant Streptococcus pneumoniae after 16 hrs by agar dilution method; format: functional
Cytochrome P450 2C19 = Cytochrome P450 2C19 (Homo sapiens, UniProt P33261); test: Inhibition of CYP2C19 in human liver microsomes using mephenytoin as substrate after 15 mins by LC/MS/MS analysis
Cytochrome P450 2C19, sequence (P33261 whole entry): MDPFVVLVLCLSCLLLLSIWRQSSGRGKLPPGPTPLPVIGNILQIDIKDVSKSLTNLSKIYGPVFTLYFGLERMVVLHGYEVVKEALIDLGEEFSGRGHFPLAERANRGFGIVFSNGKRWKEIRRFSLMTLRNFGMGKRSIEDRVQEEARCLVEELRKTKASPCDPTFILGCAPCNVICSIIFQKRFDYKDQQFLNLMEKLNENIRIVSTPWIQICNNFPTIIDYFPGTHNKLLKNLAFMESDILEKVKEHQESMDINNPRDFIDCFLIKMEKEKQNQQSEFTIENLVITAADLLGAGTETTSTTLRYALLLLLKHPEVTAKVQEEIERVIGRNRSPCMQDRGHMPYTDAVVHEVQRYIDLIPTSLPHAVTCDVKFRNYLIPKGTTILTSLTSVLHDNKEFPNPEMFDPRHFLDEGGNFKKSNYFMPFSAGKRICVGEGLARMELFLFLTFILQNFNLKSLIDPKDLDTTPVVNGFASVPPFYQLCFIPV

Cytochrome P450 2D6 = Cytochrome P450 2D6 (Homo sapiens, UniProt P10635); test: Inhibition of CYP2D6 in human liver microsomes using dextromethorphan as substrate after 15 mins by LC/MS/MS analysis
Cytochrome P450 2D6, sequence (P10635 whole entry): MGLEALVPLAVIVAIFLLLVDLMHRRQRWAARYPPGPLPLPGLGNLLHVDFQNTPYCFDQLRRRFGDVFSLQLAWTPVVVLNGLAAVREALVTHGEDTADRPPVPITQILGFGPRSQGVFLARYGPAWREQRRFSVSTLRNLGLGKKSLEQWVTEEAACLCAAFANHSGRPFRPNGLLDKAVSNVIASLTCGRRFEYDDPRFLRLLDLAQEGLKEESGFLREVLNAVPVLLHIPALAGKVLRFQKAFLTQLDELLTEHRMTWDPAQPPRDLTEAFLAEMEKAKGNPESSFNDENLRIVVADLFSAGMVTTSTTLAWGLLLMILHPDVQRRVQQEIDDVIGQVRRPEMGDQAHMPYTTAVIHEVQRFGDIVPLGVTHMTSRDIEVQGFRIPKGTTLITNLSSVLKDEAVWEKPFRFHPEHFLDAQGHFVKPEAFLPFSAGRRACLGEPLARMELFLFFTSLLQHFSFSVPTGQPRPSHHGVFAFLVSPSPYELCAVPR

Cytochrome P450 3A4 [6] = target: T1, Cytochrome P450 3A4 (Homo sapiens, UniProt P08684); test: Inhibition of CYP3A4 in human liver microsomes using testosterone as substrate after 15 mins by LC/MS/MS analysis
T1 sequence (P08684 whole entry): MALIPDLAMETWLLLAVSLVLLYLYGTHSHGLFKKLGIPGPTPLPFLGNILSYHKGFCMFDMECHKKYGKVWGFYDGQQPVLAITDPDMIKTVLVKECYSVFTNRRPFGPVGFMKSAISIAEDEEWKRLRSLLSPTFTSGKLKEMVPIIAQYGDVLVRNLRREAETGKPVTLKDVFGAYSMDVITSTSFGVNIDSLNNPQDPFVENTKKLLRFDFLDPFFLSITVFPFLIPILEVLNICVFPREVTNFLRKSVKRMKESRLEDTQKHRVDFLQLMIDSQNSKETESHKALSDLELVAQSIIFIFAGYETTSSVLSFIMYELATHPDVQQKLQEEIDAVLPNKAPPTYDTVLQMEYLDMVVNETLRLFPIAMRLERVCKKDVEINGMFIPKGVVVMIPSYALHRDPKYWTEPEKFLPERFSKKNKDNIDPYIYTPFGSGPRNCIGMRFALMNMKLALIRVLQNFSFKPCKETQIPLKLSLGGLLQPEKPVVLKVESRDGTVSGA

Cytochrome P450 1A2 = target: T2, Cytochrome P450 1A2 (Homo sapiens, UniProt P05177); test: Inhibition of CYP1A2 in human liver microsomes using phenacetin as substrate after 15 mins by LC/MS/MS analysis
T2 sequence (P05177 whole entry): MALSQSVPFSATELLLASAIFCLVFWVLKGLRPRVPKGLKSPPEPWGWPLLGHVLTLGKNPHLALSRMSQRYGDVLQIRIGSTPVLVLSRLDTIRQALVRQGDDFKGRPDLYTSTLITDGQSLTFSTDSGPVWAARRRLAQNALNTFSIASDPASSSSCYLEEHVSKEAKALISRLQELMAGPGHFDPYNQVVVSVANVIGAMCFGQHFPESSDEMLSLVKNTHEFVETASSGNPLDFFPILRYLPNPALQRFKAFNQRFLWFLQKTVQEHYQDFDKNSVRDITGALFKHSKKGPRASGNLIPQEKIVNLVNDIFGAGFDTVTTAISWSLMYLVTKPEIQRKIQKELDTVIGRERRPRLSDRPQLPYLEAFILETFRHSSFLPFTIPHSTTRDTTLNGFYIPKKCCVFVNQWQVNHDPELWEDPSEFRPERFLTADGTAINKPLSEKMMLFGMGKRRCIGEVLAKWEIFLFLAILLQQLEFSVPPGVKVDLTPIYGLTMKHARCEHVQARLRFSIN

Cytochrome P450 2C9 = Cytochrome P450 2C9 (Homo sapiens, UniProt P11712); test: Inhibition of CYP2C9 in human liver microsomes using tolbutamide as substrate after 15 mins by LC/MS/MS analysis
Cytochrome P450 2C9, sequence (P11712 whole entry): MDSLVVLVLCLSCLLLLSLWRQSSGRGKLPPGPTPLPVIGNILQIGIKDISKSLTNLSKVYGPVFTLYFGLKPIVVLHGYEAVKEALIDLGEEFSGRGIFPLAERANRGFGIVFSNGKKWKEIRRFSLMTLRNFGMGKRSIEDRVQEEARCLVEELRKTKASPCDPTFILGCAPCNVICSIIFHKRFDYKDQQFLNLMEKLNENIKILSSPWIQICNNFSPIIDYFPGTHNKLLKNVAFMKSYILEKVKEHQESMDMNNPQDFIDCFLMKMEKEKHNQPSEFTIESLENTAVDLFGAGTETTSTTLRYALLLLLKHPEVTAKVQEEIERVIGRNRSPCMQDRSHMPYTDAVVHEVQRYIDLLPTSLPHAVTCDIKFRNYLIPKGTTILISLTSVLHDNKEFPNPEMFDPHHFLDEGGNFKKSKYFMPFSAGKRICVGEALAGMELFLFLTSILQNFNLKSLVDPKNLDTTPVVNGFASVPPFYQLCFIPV

Cytochrome P450 3A4 [7] = target: T1, Cytochrome P450 3A4; test: Inhibition of CYP3A4 in human liver microsomes using midazolam as substrate after 15 mins by LC/MS/MS analysis
[8] = AUC (0 to t) in Sprague-Dawley rat at 2 mg/kg, iv administered as cassette dosing; format: ADME, organism-based; parameters: dose 2 mg/kg, route intravenous; conditions: plasma
[9] = Elimination half life in Sprague-Dawley rat at 2 mg/kg, iv administered as cassette dosing; format: ADME, organism-based; parameters: dose 2 mg/kg, route intravenous; conditions: in vivo, read-out: beta t1/2 (converted)
[10] = Clearance in Sprague-Dawley rat at 2 mg/kg, iv administered as cassette dosing; format: ADME, organism-based; parameters: dose 2 mg/kg, route intravenous; conditions: in vivo
[11] = Mean residence time in Sprague-Dawley rat at 2 mg/kg, iv administered as cassette dosing; format: ADME, organism-based; parameters: dose 2 mg/kg, route intravenous; conditions: in vivo
[12] = Volume of distribution at steady state in Sprague-Dawley rat at 2 mg/kg, iv administered as cassette dosing; format: ADME, organism-based; parameters: dose 2 mg/kg, route intravenous; conditions: in vivo, read-out: Vdss

C=C[C@]1(C)C[C@@H](OC(=O)CSc2cccnn2)[C@]2(C)[C@H](C)CC[C@]3(CCC(=O)[C@H]32)[C@@H](C)[C@@H]1O
MIC [1]: 0.063 µg/mL (≈ 0.133 µM) | MIC (Staphylococcus aureus [2]): 0.25 µg/mL (≈ 0.529 µM) | MIC [3]: 0.063 µg/mL (≈ 0.133 µM) | MIC (Staphylococcus aureus [4]): 0.25 µg/mL (≈ 0.529 µM) | MIC (Staphylococcus aureus [5]): 0.125 µg/mL (≈ 0.264 µM) | MIC (Streptococcus pneumoniae): 0.125 µg/mL (≈ 0.264 µM)

C=C[C@]1(C)C[C@@H](OC(=O)CSc2ccncc2N)[C@]2(C)[C@H](C)CC[C@]3(CCC(=O)[C@H]32)[C@@H](C)[C@@H]1O
MIC [1]: 0.063 µg/mL (≈ 0.129 µM) | MIC (Staphylococcus aureus [2]): 0.125 µg/mL (≈ 0.257 µM) | MIC [3]: 0.063 µg/mL (≈ 0.129 µM) | MIC (Staphylococcus aureus [4]): 0.063 µg/mL (≈ 0.129 µM) | MIC (Staphylococcus aureus [5]): 0.063 µg/mL (≈ 0.129 µM) | MIC (Streptococcus pneumoniae): 0.125 µg/mL (≈ 0.257 µM)

C=C[C@]1(C)C[C@@H](OC(=O)CSc2cncc(NC(=O)[C@@H](N)C(C)C)c2)[C@]2(C)[C@H](C)CC[C@]3(CCC(=O)[C@H]32)[C@@H](C)[C@@H]1O
MIC [1]: 0.125 µg/mL (≈ 0.213 µM) | MIC (Staphylococcus aureus [2]): 0.25 µg/mL (≈ 0.427 µM) | MIC [3]: 0.125 µg/mL (≈ 0.213 µM) | MIC (Staphylococcus aureus [4]): 0.125 µg/mL (≈ 0.213 µM) | MIC (Staphylococcus aureus [5]): 0.125 µg/mL (≈ 0.213 µM) | MIC (Streptococcus pneumoniae): 0.125 µg/mL (≈ 0.213 µM)

C=C[C@]1(C)C[C@@H](OC(=O)CSc2cncc(NC(=O)[C@@H]3CCCN3)c2)[C@]2(C)[C@H](C)CC[C@]3(CCC(=O)[C@H]32)[C@@H](C)[C@@H]1O
MIC [1]: 0.063 µg/mL (≈ 0.108 µM) | MIC (Staphylococcus aureus [2]): 0.125 µg/mL (≈ 0.214 µM) | MIC [3]: 0.125 µg/mL (≈ 0.214 µM) | MIC (Staphylococcus aureus [4]): 0.125 µg/mL (≈ 0.214 µM) | MIC (Staphylococcus aureus [5]): 0.031 µg/mL (≈ 0.0531 µM) | MIC (Streptococcus pneumoniae): 0.031 µg/mL (≈ 0.0531 µM)

C=C[C@]1(C)C[C@@H](OC(=O)CSc2nccs2)[C@]2(C)[C@H](C)CC[C@]3(CCC(=O)[C@H]32)[C@@H](C)[C@@H]1O
MIC [1]: 0.25 µg/mL (≈ 0.523 µM) | MIC (Staphylococcus aureus [2]): 0.5 µg/mL (≈ 1.05 µM) | MIC [3]: 0.25 µg/mL (≈ 0.523 µM) | MIC (Staphylococcus aureus [4]): 0.5 µg/mL (≈ 1.05 µM) | MIC (Staphylococcus aureus [5]): 0.5 µg/mL (≈ 1.05 µM) | MIC (Streptococcus pneumoniae): 0.5 µg/mL (≈ 1.05 µM)

C=C[C@]1(C)C[C@@H](OC(=O)CSc2cncc(NC(=O)[C@@H](N)[C@@H](C)CC)c2)[C@]2(C)[C@H](C)CC[C@]3(CCC(=O)[C@H]32)[C@@H](C)[C@@H]1O
MIC [1]: 0.25 µg/mL (≈ 0.417 µM) | MIC (Staphylococcus aureus [2]): 0.25 µg/mL (≈ 0.417 µM) | MIC [3]: 0.25 µg/mL (≈ 0.417 µM) | MIC (Staphylococcus aureus [4]): 0.25 µg/mL (≈ 0.417 µM) | MIC (Staphylococcus aureus [5]): 0.25 µg/mL (≈ 0.417 µM) | MIC (Streptococcus pneumoniae): 0.25 µg/mL (≈ 0.417 µM)

C=C[C@]1(C)C[C@@H](OC(=O)CSc2ccc(N)nc2)[C@]2(C)[C@H](C)CC[C@]3(CCC(=O)[C@H]32)[C@@H](C)[C@@H]1O
MIC [1]: 0.5 µg/mL (≈ 1.03 µM) | MIC (Staphylococcus aureus [2]): 0.125 µg/mL (≈ 0.257 µM) | MIC [3]: 0.063 µg/mL (≈ 0.129 µM) | MIC (Staphylococcus aureus [4]): 0.063 µg/mL (≈ 0.129 µM) | MIC (Staphylococcus aureus [5]): 0.125 µg/mL (≈ 0.257 µM) | MIC (Streptococcus pneumoniae): 0.063 µg/mL (≈ 0.129 µM)

C=C[C@]1(C)C[C@@H](OC(=O)CSc2cc(/C=N/N)ccn2)[C@]2(C)[C@H](C)CC[C@]3(CCC(=O)[C@H]32)[C@@H](C)[C@@H]1O
MIC [1]: 0.5 µg/mL (≈ 0.973 µM) | MIC (Staphylococcus aureus [2]): 0.5 µg/mL (≈ 0.973 µM) | MIC [3]: 0.5 µg/mL (≈ 0.973 µM) | MIC (Staphylococcus aureus [4]): 0.5 µg/mL (≈ 0.973 µM) | MIC (Staphylococcus aureus [5]): 0.5 µg/mL (≈ 0.973 µM) | MIC (Streptococcus pneumoniae): 0.5 µg/mL (≈ 0.973 µM)

C=C[C@]1(C)C[C@@H](OC(=O)CSc2cccc(CO)c2)[C@]2(C)[C@H](C)CC[C@]3(CCC(=O)[C@H]32)[C@@H](C)[C@@H]1O
IC50 (Cytochrome P450 2C19): 15.4 µM | MIC [1]: 0.063 µg/mL (≈ 0.126 µM) | MIC (Staphylococcus aureus [2]): 0.063 µg/mL (≈ 0.126 µM) | IC50 (Cytochrome P450 2D6): > 25 µM | MIC [3]: 0.063 µg/mL (≈ 0.126 µM) | MIC (Staphylococcus aureus [4]): 0.063 µg/mL (≈ 0.126 µM) | IC50 (Cytochrome P450 3A4 [6]): 1.9 µM | IC50 (Cytochrome P450 1A2): > 25 µM | MIC (Staphylococcus aureus [5]): 0.063 µg/mL (≈ 0.126 µM) | MIC (Streptococcus pneumoniae): 0.063 µg/mL (≈ 0.126 µM) | IC50 (Cytochrome P450 2C9): 11.1 µM | IC50 (Cytochrome P450 3A4 [7]): 1.95 µM

C=C[C@]1(C)C[C@@H](OC(=O)CSc2cncc(NC(=O)[C@@H](N)CC(C)C)c2)[C@]2(C)[C@H](C)CC[C@]3(CCC(=O)[C@H]32)[C@@H](C)[C@@H]1O
AUC(0-t) [8]: 69 ng·h/mL | MIC [1]: 0.063 µg/mL (≈ 0.105 µM) | MIC (Staphylococcus aureus [2]): 0.031 µg/mL (≈ 0.0517 µM) | half-life [9]: 37.8 min | clearance [10]: 488 mL/min/kg | MRT [11]: 21 min | MIC [3]: 0.063 µg/mL (≈ 0.105 µM) | MIC (Staphylococcus aureus [4]): 0.063 µg/mL (≈ 0.105 µM) | MIC (Staphylococcus aureus [5]): 0.063 µg/mL (≈ 0.105 µM) | Vd [12]: 10.3 L/kg | MIC (Streptococcus pneumoniae): 0.063 µg/mL (≈ 0.105 µM)
